Assay results from patent US10617734B2, “STAT3 and ERK signal pathway inhibitor comprising mogrosides and analogs thereof” (BEIJING UNIVERSITY OF AGRICULTURE, priority 2014, dated 2020).

How the values were obtained:
[1] = test system: phosphorylated STAT3 (P-STAT3, Tyr705); assay: Western Blotting of phosphorylated STAT3 in U937 cells; assay type: cell-based; details: 10 μmol/L, 24 hours
Description: (§1) The inhibition of the STAT3 and ERK signal pathways achieved by Mogroside I E1, Mogroside II A2 and mogrol was detected by Western Blotting, specifically:
(§2) Group 1: histiocytic lymphoma U937 cells (1×10^6 cells/well) were inoculated into a 6-well culture plate for staying overnight, and 0 and 10 μmol/L of Mogroside I E1, Mogroside II A2 and mogrol were added respectively, and the culture was continued for 24 hours;
(§3) After the termination of the cell culture, the culture solution was removed, and the residue was washed with PBS (0.01 mol/L, pH 7.4), and then a cell lysis solution containing protease inhibitors was added at an amount of 50 μl/well, and the mixture was placed in an ice bath for lysis at 4° C. for 30 min and then centrifuged at 14000 r/min for 10 min, and then total proteins were obtained from the supernatant;
(§4) The protein concentrations were measured with bovine serum albumin (BSA) as the standard. 50 μg of the total proteins was separated by polyacrylamide gel electrophoresis with 12% […], electrophoretically transferred to a PVDF membrane (polyvinylidene fluoride membrane), and blocked for 1 h by 5% of skim milk (containing 0.1% of Tween 20), and then antibodies p-STAT3 (Tyr705) and p-Erk1/2 as well as β-actin were added, and the primary antibody was incubated at 4° C. overnight (β-actin was used as reference in loading amount); the membrane was washed for 3 times with TBS-T, 5 min each time; secondary antibody marked by horseradish peroxidase (HRP) was added for incubation at room temperature for 1 h, the membrane was washed for 3 times with a wash solution (TBS-T), 10 min each time, and then ECL was added for incubation in dark for 5 min, and subsequently, a fluorescence imaging analyzer was used for image development and scanning analysis, and the results of Western Blotting detection are shown in FIGS. 4 to 6.

[2] = test system: phosphorylated ERK1/2 (P-ERK1/2); assay: Western Blotting of phosphorylated ERK1/2 in U937 cells; assay type: cell-based; details: 10 μmol/L, 24 hours
Description: as §1, §2, §3, §4

[3] = test system: phosphorylated ERK1/2 (P-ERK1/2); assay: Western Blotting of phosphorylated ERK1/2 in K562 cells; assay type: cell-based, human; details: leukemia cells K562, 10 μmol/L, 24 hours
Description: as §1
Group 3: leukemia cells K562 (1×10^6 cells/well) were inoculated into a 6-well culture plate for staying overnight, and 0 and 10 μmol/L of Mogroside I E1 Mogroside II A2 and mogrol were added respectively, and the culture was continued for 24 hours;
as §3, §4

[4] = test system: cycle regulatory protein P21; assay: Western Blotting of P21 in A875 cells; assay type: cell-based; details: human melanoma A875 cells, 10 μmol/L, 24 h
Description: (§5) The STAT3 and ERK signal pathways can regulate cyclins and apoptosis genes, and in order to verify the effects of […] and mogrol, the expression status of downstream genes of STAT3 and ERK was detected, wherein the influences of the three mogrosides and analogs thereof, i.e. Mogrol I E1, Mogrol II A2 and mogrol, on Bcl-2 and P21 proteins in the histiocytic lymphoma U937 cells, human melanoma A875 cells and leukemia cells K562 were determined, respectively.
(§6) The regulation of Bcl-2 and P21 proteins by mogrosides and analog thereof to the was detected by Western Blotting, specifically: histiocytic lymphoma U937 cells, human melanoma A875 cells and leukemia cells K562 (1×10^6 cells/well) were inoculated into a 6-well culture plate overnight, and 0 and 10 μmol/L of the mogrosides and analogs thereof were added respectively, and kept cultured for 24 h. […]
(§7) The protein concentration was measured with bovine serum albumin (BSA) as the standard. 50 μg of the total proteins were separated by polyacrylamide gel electrophoresis with 12% SDS, and electrophoretically transferred to a PVDF membrane (polyvinylidene fluoride membrane), and blocked for 1 h by 5% of skim milk (containing 0.1% of Tween 20), and then antibodies P21, Bcl-2 and β-actin were added, wherein the primary antibody was incubated at 4° C. overnight (β-actin was used as reference loading amount); the membrane was washed for 3 times with TBS-T, 5 min each time; secondary antibody marked by horseradish peroxidase (HRP) was added for incubation at room temperature for 1 h, the membrane was washed with rinse solution (TBS-T) for 3 times, 10 min each time, and then ECL was added for incubation in dark for 5 min, and subsequently, a fluorescence imaging analyzer was used for image development and scanning analysis.

[5] = test system: anti-apoptotic protein Bcl-2; assay: Western Blotting of Bcl-2 in K562 cells; assay type: cell-based, human; details: leukemia cells K562, 10 μmol/L, 24 h
Description: as §5, §6, §7

[6] = test system: human melanoma A875 cells; assay: Cell cycle distribution, PI staining, flow cytometer; assay type: cell-based
Text: The influences of Mogroside I E1, Mogroside II A2 and mogrol on the cell cycle distribution of the histiocytic lymphoma U937 cells, the human melanoma A875 cells and the leukemia cells K562.
The cell cycle arrest achieved by drugs is an important approach to the inhibition of cancer cell proliferation.

leukemia cells K562 [7] = assay: Cell apoptosis, Annexin V-FITC/PI, flow cytometer; assay type: cell-based, human; details: leukemia cells K562, 10 μmol/L, 24 h
Description: Lymphoma U937 cells, human melanoma A875 cells and leukemia cells K562 in logarithmic growth phase were selected, and after the respective culture with 0 and 10 μmol/L of the mogrosides and analogs thereof (i.e. Mogroside I E1, Mogroside II A2 and mogrol) for 24 h, cells were collected and washed twice with 200 μl of cold PBS, and then the cells were collected again; 100 μl of binding buffer was added for re-suspending the cells, and after the addition of 2 μl of Annexin V-FITC and well mixing, the resulting mixture was placed in dark at room temperature for 10 min, and then 5 μl of propidium iodide (PI) was added and then well mixed; the mixture was placed in dark at room temperature for 10 min, and detected by flow cytometer, and the results are shown in FIGS. 13-15.

leukemia cells K562 [8] = assay: Cell morphology, Hoechst 33258 staining, fluorescence microscope; assay type: cell-based, human; details: leukemia cells K562, 10, 100 and 250 μmol/L, 24-hour culture
Description: Lymphoma U937 cells, human melanoma A875 cells and leukemia cells K562 in logarithmic growth phase were selected, and the concentrations of the cells were adjusted to 1×10^4 cells/mL, and the cells were transferred to a 6-well plate for culture, and after the 24-hour culture, drugs were added to achieve final concentrations of 0, 10, 100 and 250 μmol/L, wherein only whole medium was added to the negative control groups, while Mogroside II A2 was added to the positive control groups, after 24-hour culture, waste solution was removed, and fixing solution was added to each well for fixing for 25 min, and then the resulting mixture was washed twice, 3 min each time, and then Hoechst 33258 staining solution was added for staining in dark at room temperature for 30 min, and the cell morphology variation was observed using a fluorescence microscope.

In the case of `C[C@H](CC[C@@H](O)C(C)(C)O)[C@H]1CC[C@@]2(C)[C@@H]3CC=C4[C@@H](CC[C@H](O)C4(C)C)[C@]3(C)[C@H](O)C[C@]12C` [mogrol], the “expression level of phosphorylated STAT3 (P-STAT3)” value [1] is reported as “significantly decreased”, the “expression level of phosphorylated ERK1/2 (P-ERK1/2)” value [2] is reported as “significantly decreased” and the “expression level of phosphorylated ERK1/2 (P-ERK1/2)” value [3] is reported as “significantly decreased”. The “expression of cycle regulatory protein P21” value [4] was “significantly up-regulated”, the “expression of anti-apoptotic protein Bcl-2” value [5] was “significantly down-regulated” and the “cell cycle distribution (proportion of cells in the G0/G1 phase)” value ([6]; human melanoma A875 cells, 10 μmol/L, 24 h) was “G0/G1 arrest”. For the same compound, the “proportion of cells in the G0/G1 phase with the rise of the concentration” value ([6]; melanoma A875 cells, different concentrations (FIG. 12)) was “gradually increased”, the cell apoptosis (leukemia cells K562 [7]) was “induce the apoptosis” and the “cell morphology variation (Hoechst 33258)” value (leukemia cells K562 [8]) was “identical to the results of Mogroside II A2”.
